Experimental data published in patent US9777000B2, “Pyrazole derivative” (MOCHIDA PHARMACEUTICAL CO., LTD., priority 2013, dated 2017).

The compounds below were run against human PDE10 (Homo sapiens (Human), UniProt Q9Y233) (assay: Evaluation of enzyme inhibitory activity: human PDE10 inhibitory effect (IMAP TR-FRET)). Details: cAMP substrate.
Type: biochemical
Method: (Evaluation of Enzyme Inhibitory Activity: Human PDE10 Inhibitory Effect)
IMAP TR-FRET Phosphodiersterase Evaluation Assay Kit (Molecular Device) was used for the measurement. Ten μL of a diluted test compound having each concentration and 5 μL of the enzyme PDE10 (BPA Bioscience) that had been diluted to 2 ng/mL with 1×IMAP Reaction Buffer (prepared with 5×included with the kit, 10 mM Tris-HCl, pH=7.2, 10 mM MgCl2, 0.05% NaN3, and 0.1% BSA) containing 0.1% BSA were added to a 384-well plate (Corning). The obtained mixture was then pre-incubated at room temperature for 5 minutes. Thereafter, 5 μL of cAMP substrate solution which was included with the kit and diluted to 400 nM with 1×IMAP Reaction Buffer containing 0.1% BSA, was added to the reaction solution, and the obtained mixture was reacted at room temperature for 60 minutes. Thereafter, 60 μL of an IMAP TR-FRET Binding solution included with the kit was further added to the reaction solution, and the obtained mixture was then left for 3 hours or more. Subsequently, using ARVO SX (PerkinElmer), the fluorescent intensity of Terbium (Emission=490 nm) and TR-FRET (Emission=520 nm) in the reaction solution were measured at an excitation wavelength of 340 nm, so as to calculate the amount of the generated 5′-AMP. The count of a well to which a solvent had been added instead of the test compound was set at 0%, and the count of a well to which the enzyme PDE10 had not been added was set at 100%. Thus, the inhibitory activity of each test compound was calculated.
The PDE10 inhibitory activity of the test compound was indicated with an IC50 value. […] The test compounds are shown in Table 3 (Table 3-1 and Table 3-2).

human PDE10, sequence (Q9Y233 whole entry): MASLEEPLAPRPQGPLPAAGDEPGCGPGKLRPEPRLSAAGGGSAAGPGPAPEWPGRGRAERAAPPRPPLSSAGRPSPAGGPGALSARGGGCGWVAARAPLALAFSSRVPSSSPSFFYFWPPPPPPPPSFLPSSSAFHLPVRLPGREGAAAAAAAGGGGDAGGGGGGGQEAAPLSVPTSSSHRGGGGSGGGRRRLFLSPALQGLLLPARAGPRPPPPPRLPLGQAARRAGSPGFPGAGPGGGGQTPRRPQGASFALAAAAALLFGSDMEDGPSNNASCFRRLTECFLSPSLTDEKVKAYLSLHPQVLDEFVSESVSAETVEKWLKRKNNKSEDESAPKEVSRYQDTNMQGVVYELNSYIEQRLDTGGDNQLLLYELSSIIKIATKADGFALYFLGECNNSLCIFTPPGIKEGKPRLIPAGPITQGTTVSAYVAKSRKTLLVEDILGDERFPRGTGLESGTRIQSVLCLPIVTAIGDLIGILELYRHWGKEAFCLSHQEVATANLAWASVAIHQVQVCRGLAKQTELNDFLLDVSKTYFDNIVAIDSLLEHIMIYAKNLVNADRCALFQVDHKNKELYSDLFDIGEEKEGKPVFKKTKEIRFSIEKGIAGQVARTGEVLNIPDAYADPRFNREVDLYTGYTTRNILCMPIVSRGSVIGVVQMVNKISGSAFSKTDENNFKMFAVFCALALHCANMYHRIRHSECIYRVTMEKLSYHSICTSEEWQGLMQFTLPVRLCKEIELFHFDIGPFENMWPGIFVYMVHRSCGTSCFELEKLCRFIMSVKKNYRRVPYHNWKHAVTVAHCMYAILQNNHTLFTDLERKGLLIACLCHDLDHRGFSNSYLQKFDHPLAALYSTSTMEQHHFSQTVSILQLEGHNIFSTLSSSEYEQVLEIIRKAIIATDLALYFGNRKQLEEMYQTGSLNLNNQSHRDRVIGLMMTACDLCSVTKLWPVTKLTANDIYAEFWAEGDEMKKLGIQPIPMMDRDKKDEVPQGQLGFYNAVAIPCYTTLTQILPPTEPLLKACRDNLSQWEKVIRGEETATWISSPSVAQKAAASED

IC50	SMILES
< 5 nM	COc1cncnc1-c1cnn(C)c1C(=O)Nc1cc2nc(-c3ccccc3)nn2cc1F [Example 3.34, N-(6-fluoro-2-phenyl-[1,2,4]triazolo[1,5-a]pyridin-7-yl)-4-(5-methoxypyrimidin-4-yl)-1-methyl-1H-pyrazole-5-carboxamide]
< 5 nM	COc1ncc(F)c(-c2cnn(C)c2C(=O)Nc2cc3nc(-c4ccccc4)nn3cc2F)n1 [Example 3.27, 4-(5-fluoro-2-methoxypyrimidin-4-yl)-N-(6-fluoro-2-phenyl-[1,2,4]triazolo[1,5-a]pyridin-7-yl)-1-methyl-1H-pyrazole-5-carboxamide]
< 5 nM	COc1ccnc(-c2cnn(C)c2C(=O)Nc2cc3nc(-c4ccccc4)nn3cc2F)c1 [Example 3.52, N-(6-fluoro-2-phenyl-[1,2,4]triazolo[1,5-a]pyridin-7-yl)-4-(4-methoxypyridin-2-yl)-1-methyl-1H-pyrazole-5-carboxamide]
< 5 nM	Cn1ncc(-c2nc(C(F)F)cs2)c1C(=O)Nc1cc2nc(-c3ccccc3)nn2cc1F [Example 3.12, 4-(4-(difluoromethyl)thiazol-2-yl)-N-(6-fluoro-2-phenyl-[1,2,4]triazolo[1,5-a]pyridin-7-yl)-1-methyl-1H-pyrazole-5-carboxamide]
< 5 nM	COc1ccnc(-c2cnn(C)c2C(=O)Nc2ccn3nc(N4CCC[C@@H]4C)nc3c2)c1 [Example 4.5, (S)-4-(4-methoxypyridin-2-yl)-1-methyl-N-(2-(2-methylpyrrolidin-1-yl)-[1,2,4]triazolo[1,5-a]pyridin-7-yl)-1H-pyrazole-5-carboxamide]
< 5 nM	Cc1cc(C)nc(-c2cnn(C)c2C(=O)Nc2cc3nc(-c4ccccc4)nn3cc2F)c1 [Example 3.11, 4-(4,6-dimethylpyridin-2-yl)-N-(6-fluoro-2-phenyl-[1,2,4]triazolo[1,5-a]pyridin-7-yl)-1-methyl-1H-pyrazole-5-carboxamide]
< 5 nM	CCc1sc(-c2cnn(C)c2C(=O)NC2CCn3nc(-c4ccccc4)nc3C2)nc1C(F)F (stereo not shown) [Example 5.6, 4-(4-(difluoromethyl)-5-ethylthiazol-2-yl)-1-methyl-N-(2-phenyl-5,6,7,8-tetrahydro-[1,2,4]triazolo[1,5-a]pyridin-7-yl)-1H-pyrazole-5-carboxamide]
< 5 nM	Cc1cncc(-c2cnn(C)c2C(=O)Nc2cc3nc(-c4ccccc4)nn3cc2F)n1 [Example 3.9, N-(6-fluoro-2-phenyl-[1,2,4]triazolo[1,5-a]pyridin-7-yl)-1-methyl-4-(6-methylpyrazin-2-yl)-1H-pyrazole-5-carboxamide]
< 5 nM	COc1ccccc1-c1nc2cc(NC(=O)c3c(-c4nc(C(F)F)cs4)cnn3C)ccn2n1 [Example 3.16, 4-(4-(difluoromethyl)thiazol-2-yl)-N-(2-(2-methoxyphenyl)-[1,2,4]triazolo[1,5-a]pyridin-7-yl)-1-methyl-1H-pyrazole-5-carboxamide]
< 5 nM	Cn1ncc(-c2nc(C(F)(F)F)cs2)c1C(=O)NC1CCn2cc(-c3ccc(F)cc3)nc2C1 (stereo not shown) [Example 2.29, N-(2-(4-fluorophenyl)-5,6,7,8-tetrahydroimidazo[1,2-a]pyridin-7-yl)-1-methyl-4-(4-(trifluoromethyl)thiazol-2-yl)-1H-pyrazole-5-carboxamide]
< 5 nM	CC(C)c1nsc(-c2cnn(C)c2C(=O)NC2CCn3cc(-c4ccccc4)nc3C2)n1 (stereo not shown) [Example 2.14, 4-(3-isopropyl-1,2,4-thiadiazol-5-yl)-1-methyl-N-(2-phenyl-5,6,7,8-tetrahydroimidazo[1,2-a]pyridin-7-yl)-1H-pyrazole-5-carboxamide]
< 5 nM	Cn1ncc(-c2nc(C(F)(F)F)cs2)c1C(=O)NC1CCn2cc(-c3cccc(F)c3)nc2C1 (stereo not shown) [Example 2.8, N-(2-(3-fluorophenyl)-5,6,7,8-tetrahydroimidazo[1,2-a]pyridin-7-yl)-1-methyl-4-(4-(trifluoromethyl)thiazol-2-yl)-1H-pyrazole-5-carboxamide]
< 5 nM	Cc1ncnc(-c2cnn(C)c2C(=O)Nc2cc3nc(-c4ccccc4)nn3cc2F)c1F [Example 3.38, N-(6-fluoro-2-phenyl-[1,2,4]triazolo[1,5-a]pyridin-7-yl)-4-(5-fluoro-6-methylpyrimidin-4-yl)-1-methyl-1H-pyrazole-5-carboxamide]
< 5 nM	Cn1ncc(-c2cccnn2)c1C(=O)Nc1cc2nc(-c3ccccc3)nn2cc1F [Example 3.47, N-(6-fluoro-2-phenyl-[1,2,4]triazolo[1,5-a]pyridin-7-yl)-1-methyl-4-(pyridazin-3-yl)-1H-pyrazole-5-carboxamide]
< 5 nM	COc1cccc(-c2cnn(C)c2C(=O)NC2CCn3cc(-c4ccccc4)nc3C2)n1 (stereo not shown) [Example 2.11, 4-(6-methoxypyridin-2-yl)-1-methyl-N-(2-phenyl-5,6,7,8-tetrahydroimidazo[1,2-a]pyridin-7-yl)-1H-pyrazole-5-carboxamide]
< 5 nM	Cn1ncc(-c2nc(C(F)(F)F)cs2)c1C(=O)Nc1ccn2nc(N3CCCC3)nc2c1 [Example 4.34, 1-methyl-N-(2-(pyrrolidin-1-yl)-[1,2,4]triazolo[1,5-a]pyridin-7-yl)-4-(4-(trifluoromethyl)thiazol-2-yl)-1H-pyrazole-5-carboxamide]
< 5 nM	Cc1sc(-c2cnn(C)c2C(=O)Nc2ccn3nc(N4CCC[C@@H]4C)nc3c2)nc1C(F)F [Example 4.9, (S)-4-(4-(difluoromethyl)-5-methylthiazol-2-yl)-1-methyl-N-(2-(2-methylpyrrolidin-1-yl)-[1,2,4]triazolo[1,5-a]pyridin-7-yl)-1H-pyrazole-5-carboxamide]
< 5 nM	Cn1cnc(-c2cnn(C)c2C(=O)Nc2cc3nc(-c4ccccc4)nn3cc2F)c1 [Example 3.48, N-(6-fluoro-2-phenyl-[1,2,4]triazolo[1,5-a]pyridin-7-yl)-1-methyl-4-(1-methyl-1H-imidazol-4-yl)-1H-pyrazole-5-carboxamide]
< 5 nM	COc1ccnc(-c2cnn(C)c2C(=O)Nc2ccn3nc(N4CC[C@H](F)C4)nc3c2)c1 [Example 4.18, (S)-N-(2-(3-fluoropyrrolidin-1-yl)-[1,2,4]triazolo[1,5-a]pyridin-7-yl)-4-(4-methoxypyridin-2-yl)-1-methyl-1H-pyrazole-5-carboxamide]
< 5 nM	Cc1ncc(Cl)c(-c2cnn(C)c2C(=O)Nc2cc3nc(-c4ccccc4)nn3cc2F)n1 [Example 3.41, 4-(5-chloro-2-methylpyrimidin-4-yl)-N-(6-fluoro-2-phenyl-[1,2,4]triazolo[1,5-a]pyridin-7-yl)-1-methyl-1H-pyrazole-5-carboxamide]
< 5 nM	Cc1nc(C)c(C)c(-c2cnn(C)c2C(=O)Nc2cc3nc(-c4ccccc4)nn3cc2F)n1 [Example 3.37, N-(6-fluoro-2-phenyl-[1,2,4]triazolo[1,5-a]pyridin-7-yl)-1-methyl-4-(2,5,6-trimethylpyrimidin-4-yl)-1H-pyrazole-5-carboxamide]
< 5 nM	Cn1ncc(-c2ccc(C#N)cn2)c1C(=O)Nc1cc2nc(-c3ccccc3)nn2cc1F [Example 3.23, 4-(5-cyanopyridin-2-yl)-N-(6-fluoro-2-phenyl-[1,2,4]triazolo[1,5-a]pyridin-7-yl)-1-methyl-1H-pyrazole-5-carboxamide]
< 5 nM	Cc1nc(-c2cnn(C)c2C(=O)NC2CCn3nc(-c4ccccc4)nc3C2)sc1Br (stereo not shown) [Example 5.7, 4-(5-bromo-4-methylthiazol-2-yl)-1-methyl-N-(2-phenyl-5,6,7,8-tetrahydro-[1,2,4]triazolo[1,5-a]pyridin-7-yl)-1H-pyrazole-5-carboxamide]
< 5 nM	Cc1cncc(-c2cnn(C)c2C(=O)Nc2ccn3nc(N4CC[C@H](F)C4)nc3c2)n1 [Example 4.19, (S)-N-(2-(3-fluoropyrrolidin-1-yl)-[1,2,4]triazolo[1,5-a]pyridin-7-yl)-1-methyl-4-(6-methylpyrazin-2-yl)-1H-pyrazole-5-carboxamide]
< 5 nM	Cc1cnc(-c2cnn(C)c2C(=O)NC2CCn3cc(-c4ccccc4)nc3C2)s1 (stereo not shown) [Example 2.15, 1-methyl-4-(5-methylthiazol-2-yl)-N-(2-phenyl-5,6,7,8-tetrahydroimidazo[1,2-a]pyridin-7-yl)-1H-pyrazole-5-carboxamide]
< 5 nM	Cc1sc(-c2cnn(C)c2C(=O)Nc2ccn3nc(N4CCCC4)nc3c2)nc1C(F)F [Example 4.33, 4-(4-(difluoromethyl)-5-methylthiazol-2-yl)-1-methyl-N-(2-(pyrrolidin-1-yl)-[1,2,4]triazolo[1,5-a]pyridin-7-yl)-1H-pyrazole-5-carboxamide]
< 5 nM	Cc1cc(C)nc(-c2cnn(C)c2C(=O)Nc2cc3nc(-c4ccccc4)nn3cc2F)n1 [Example 3.44, 4-(4,6-dimethylpyrimidin-2-yl)-N-(6-fluoro-2-phenyl-[1,2,4]triazolo[1,5-a]pyridin-7-yl)-1-methyl-1H-pyrazole-5-carboxamide]
< 5 nM	Cc1csc(-c2cnn(C)c2C(=O)Nc2ccn3cc(-c4ccccc4)nc3c2)n1 [Example 1.2, 1-methyl-4-(4-methylthiazol-2-yl)-N-(2-phenylimidazo[1,2-a]pyridin-7-yl)-1H-pyrazole-5-carboxamide]
